Here are results for eleven compounds from patent US11149031B2, “Substituted N-(3-fluoropropyl)-pyrrolidine compounds, processes for their preparation and therapeutic uses thereof” (SANOFI, priority 2016, dated 2021).

The test system of assay [1] is MCF7 cells expressing mutant estrogen receptor Asp 538 Gly. Nature of the assay: Test B: cell proliferation/viability assay (CellTiter-Glo) on MCF7 Asp 538 Gly mutant. The settings on record: Homo sapiens, MCF7, 168 h, MCF7 cells expressing ER Asp 538 Gly mutant, 7 days of compound exposure, read-out: proliferation MCF7 D538G IC50. The format is cell-based. In outline: (§1)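 Viability is measured in MCF7 cells, either parental or engineered to depend on mutant estrogen receptor. Compounds act for 7 days at final concentrations from 3 to 0.000001 μM in hormone-depleted medium, with ATP luminescence as the read-out.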
(ATP-based viability assays read luminescence as a measure of living cells.)

In assay [2] the target is His6-ERα298-554 WT (ERα ligand-binding domain) (Homo sapiens (Human), UniProt P03372). Nature of the assay: Test A: biochemical antagonist activity, LanthaScreen TR-FRET ERα coactivator assay, WT. The settings on record: read-out: Antagonism WT IC50. In outline:
(§2)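 TR-FRET 520:495 nm emission ratio read after overnight room-temperature incubation; IC50 derived by 4-parameter logistic fit. Mix: 0.5 nM receptor LBD, 0.5 nM Tb-His6 antibody, 250 nM PGC1a peptide, 3 nM or 10 nM estradiol, pH 7.4 phosphate buffer.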

In assay [3] the target is His6-ERα298-554 Y537S mutant (ERα ligand-binding domain) (Homo sapiens (Human), UniProt P03372, Y537S). Briefly: Test A: biochemical antagonist activity, LanthaScreen TR-FRET ERα coactivator assay, Y537S mutant. As to conditions: read-out: Antagonism Y537S IC50. In outline: as §2
A further assay addresses ERα in MCF7 cells (Homo sapiens (Human), UniProt P03372). Nature of the assay: Test C: estrogen receptor degradation activity, ERα in cell western assay in MCF7 cells. Format: cell-based. The settings on record: for DC50: 4 hours post compound addition, ERα in cell western, read-out: Degradation IC50; for % Degradation at 3 μM: 4 hours, relative to fulvestrant. In outline:
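Degradation of ERα was gauged in MCF7 cells after 4 h treatment, by fluorescence immunostaining normalised against DNA content.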

In assay [4] the test system is MCF7 cells expressing mutant estrogen receptor Tyr 537 Ser. Nature of the assay: Test B: cell proliferation/viability assay (CellTiter-Glo) on MCF7 Tyr 537 Ser mutant. The format is cell-based. As to conditions: Homo sapiens, MCF7, 168 h, MCF7 cells expressing ER Tyr 537 Ser mutant, 7 days of compound exposure, read-out: proliferation MCF7 Y537S IC50. In outline: as §1

The target in assay [5] is His6-ERα298-554 D538G mutant (ERα ligand-binding domain) (Homo sapiens (Human), UniProt P03372, D538G). Nature of the assay: Test A: biochemical antagonist activity, LanthaScreen TR-FRET ERα coactivator assay, D538G mutant. The settings on record: read-out: Antagonism D538G IC50. In short, it runs like this: as §2
(In general: In TR-FRET formats the signal depends on donor and acceptor labels being close together.)

Assay [6] has as its system MCF7 cells (breast tumor cells) WT. Briefly: Test B: cell proliferation/viability assay (CellTiter-Glo) on MCF7 WT. Format: cell-based. As to conditions: Homo sapiens, MCF7, 168 h, 7 days of compound exposure. In outline: as §1
Setting [7] is: asterisk (*): protocol using 10 nM estradiol.

pIC50: −log10 of the molar value. Read-outs that look alike come from different tables or passages of the source. Where only a bound is given, the exact number is not on record here.

His6-ERα298-554 D538G mutant (ERα ligand-binding domain), sequence (P03372 298-554 D538G): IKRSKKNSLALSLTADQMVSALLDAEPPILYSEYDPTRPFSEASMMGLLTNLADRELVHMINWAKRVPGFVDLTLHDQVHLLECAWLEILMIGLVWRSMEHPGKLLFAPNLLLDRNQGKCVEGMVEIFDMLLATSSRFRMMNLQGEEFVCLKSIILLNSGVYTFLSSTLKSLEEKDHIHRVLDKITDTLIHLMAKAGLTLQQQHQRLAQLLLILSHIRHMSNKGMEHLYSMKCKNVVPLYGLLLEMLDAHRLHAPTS
His6-ERα298-554 WT (ERα ligand-binding domain), sequence (P03372 298-554): as the sequence (P03372 298-554 D538G) above, with G241D counted along it
His6-ERα298-554 Y537S mutant (ERα ligand-binding domain), sequence (P03372 298-554 Y537S): as the sequence (P03372 298-554 D538G) above, with Y240S, G241D counted along it
ERα in MCF7 cells, sequence (P03372 whole entry): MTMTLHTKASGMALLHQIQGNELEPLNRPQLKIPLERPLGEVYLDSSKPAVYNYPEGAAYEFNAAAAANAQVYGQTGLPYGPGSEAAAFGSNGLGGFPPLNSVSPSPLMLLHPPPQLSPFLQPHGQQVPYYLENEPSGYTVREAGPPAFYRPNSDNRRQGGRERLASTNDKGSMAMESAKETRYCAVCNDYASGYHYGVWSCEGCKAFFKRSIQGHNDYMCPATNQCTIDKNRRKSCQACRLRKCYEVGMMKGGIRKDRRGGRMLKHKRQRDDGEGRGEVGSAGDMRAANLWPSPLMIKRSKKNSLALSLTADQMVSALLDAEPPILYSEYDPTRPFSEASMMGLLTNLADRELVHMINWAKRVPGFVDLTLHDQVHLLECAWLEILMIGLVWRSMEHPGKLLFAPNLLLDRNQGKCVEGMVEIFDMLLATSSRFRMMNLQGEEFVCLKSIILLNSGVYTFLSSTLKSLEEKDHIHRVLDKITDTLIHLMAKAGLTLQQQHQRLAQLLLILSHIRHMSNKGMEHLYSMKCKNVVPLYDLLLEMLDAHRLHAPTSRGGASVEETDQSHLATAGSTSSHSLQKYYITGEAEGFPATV

Turning to `Oc1ccc2c(c1F)CCCC(c1ccc(Cl)cc1Cl)=C2c1ccc(O[C@H]2CCN(CCCF)C2)nc1` [Example 245, 6-(2,4-dichlorophenyl)-1-fluoro-5-[6-[(3S)-1-(3-fluoropropyl)pyrrolidin-3-yl]oxy-3-pyridyl]-8,9-dihydro-7H-benzo[7]annulen-2-ol], the pIC50 in assay [1] is 10.00; in assay [2] (protocol with 3 nM estradiol), 9.40; in assay [3] (protocol with 3 nM estradiol) it was 8.52; in assay [4], 8.52; in assay [5] (protocol with 3 nM estradiol) it was 8.40; in assay [6], 9.52. Moreover, the DC50 at ERα in MCF7 cells was found to be 0.5 nM. The “% Degradation at 3 μM” value on ERα in MCF7 cells came to 87%.
With `CCOc1ccc(C2=C(c3cnc(O[C@H]4CCN(CCCF)C4)nc3)c3ccc(O)cc3CCC2)c(F)c1F` [Example 246, 6-(4-ethoxy-2,3-difluoro-phenyl)-5-[2-[(3S)-1-(3-fluoropropyl)pyrrolidin-3-yl]oxypyrimidin-5-yl]-8,9-dihydro-7H-benzo[7]annulen-2-ol], the pIC50 in assay [1] is 9.40; in assay [2] (setting [7]) it was 8.70; in assay [3] (setting [7]), 7.59; in assay [4] it was 8.15; in assay [5] (setting [7]), 7.38; in assay [6], 9.40. The DC50 on ERα in MCF7 cells amounted to 0.5 nM. In addition, at ERα in MCF7 cells, the “% Degradation at 3 μM” value was determined as 82%.
Regarding `O=C(O)c1ccc2c(c1)CCCC(c1ccc(Cl)cc1Cl)=C2c1ccc(O[C@H]2CCN(CCCF)C2)nc1` [Example 247, 6-(2,4-dichlorophenyl)-5-[6-[(3S)-1-(3-fluoropropyl)pyrrolidin-3-yl]oxy-3-pyridyl]-8,9-dihydro-7H-benzo[7]annulene-2-carboxylic acid], the pIC50 in assay [1] was 9.40; in assay [2] (setting [7]) it was 8.30; in assay [3] (setting [7]), 7.14; in assay [4] it was 8.22; in assay [5] (setting [7]), 6.87; in assay [6] it was 9.70. Also, the DC50 at ERα in MCF7 cells amounted to 0.2 nM. The “% Degradation at 3 μM” value at ERα in MCF7 cells is listed as 93%.
As to `O=C(O)c1ccc2c(c1)CCCC(c1ccc(OC(F)F)c(F)c1)=C2c1ccc(O[C@H]2CCN(CCCF)C2)nc1` [Example 248, 6-[4-(difluoromethoxy)-3-fluoro-phenyl]-5-[6-[(3S)-1-(3-fluoropropyl)pyrrolidin-3-yl]oxy-3-pyridyl]-8,9-dihydro-7H-benzo[7]annulene-2-carboxylicacid], the pIC50 is 9.00 in assay [1]; 6.85 in assay [2] (setting [7]); 5.72 in assay [3] (setting [7]); 7.82 in assay [4]; 5.46 in assay [5] (setting [7]); 9.15 in assay [6]. The DC50 on ERα in MCF7 cells was determined as 0.7 nM. At ERα in MCF7 cells, the “% Degradation at 3 μM” value is given as 95%.
With `Oc1ccc2c(c1F)CCCC(c1ccc(OC(F)F)c(F)c1)=C2c1ccc(O[C@H]2CCN(CCCF)C2)nc1` [Example 249, 6-[4-(difluoromethoxy)-3-fluoro-phenyl]-1-fluoro-5-[6-[(3S)-1-(3-fluoropropyl)pyrrolidin-3-yl]oxy-3-pyridyl]-8,9-dihydro-7H-benzo[7]annulen-2-ol], the pIC50 in assay [1] was 9.22; in assay [2] (setting [7]) it was 9.00; in assay [3] (setting [7]) it was 7.85; in assay [4], 8.40; in assay [5] (setting [7]) it was 7.62; in assay [6], 9.52. In addition, at ERα in MCF7 cells, the DC50 amounted to 0.3 nM. Further, the “% Degradation at 3 μM” value on ERα in MCF7 cells is 87%.
Take `Cc1cc(C2=C(c3ccc(O[C@H]4CCN(CCCF)C4)nc3)c3ccc(O)c(F)c3CCC2)ccc1Cl` [Example 250, 6-(4-chloro-3-methyl-phenyl)-1-fluoro-5-[6-[(3S)-1-(3-fluoropropyl)pyrrolidin-3-yl]oxy-3-pyridyl]-8,9-dihydro-7H-benzo[7]annulen-2-ol]: the pIC50 in assay [1] is 9.52; in assay [2] (setting [7]), 8.15; in assay [3] (setting [7]), 7.15; in assay [4] it was 8.40; in assay [5] (setting [7]) it was 6.95; in assay [6], 9.52. In addition, the DC50 at ERα in MCF7 cells was 0.5 nM. Besides, the “% Degradation at 3 μM” value at ERα in MCF7 cells is on record as 87%.
Regarding `CCOc1ccc(C2=C(c3cnc(O[C@H]4CCN(CCCF)C4)nc3)c3ccc(O)cc3CCC2)c(F)n1` [Example 251, 6-(6-ethoxy-2-fluoro-3-pyridyl)-5-[2-[(3S)-1-(3-fluoropropyl)pyrrolidin-3-yl]oxypyrimidin-5-yl]-8,9-dihydro-7H-benzo[7]annulen-2-ol], the pIC50 in assay [1] is 9.30; in assay [2] (setting [7]) it was 8.40; in assay [3] (setting [7]) it was 7.24; in assay [4], 8.30; in assay [5] (setting [7]), 6.98; in assay [6], 9.40. Moreover, the DC50 at ERα in MCF7 cells was determined as 0.5 nM. Further, the “% Degradation at 3 μM” value on ERα in MCF7 cells amounted to 89%.
Regarding `CCOc1ccc(C2=C(c3ccc(O[C@H]4CCN(CCCF)C4)nc3)c3ccc(O)c(F)c3CCC2)c(F)n1` [Example 252, 6-(6-ethoxy-2-fluoro-3-pyridyl)-1-fluoro-5-[6-[(3S)-1-(3-fluoropropyl)pyrrolidin-3-yl]oxy-3-pyridyl]-8,9-dihydro-7H-benzo[7]annulen-2-ol], the pIC50 in assay [1] is 9.40; in assay [2] (setting [7]), 9.15; in assay [3] (setting [7]) it was 8.05; in assay [4] it was 8.05; in assay [5] (setting [7]), 8.10; in assay [6] it was 9.22. At ERα in MCF7 cells, the DC50 amounted to 0.2 nM. The “% Degradation at 3 μM” value on ERα in MCF7 cells came out at 86%.
Turning to `Oc1ccc2c(c1)CCCC(c1ccc(OC(F)(F)F)cc1)=C2c1ccc(O[C@H]2CCN(CCCF)C2)nc1` [Example 253, 5-[6-[(3S)-1-(3-fluoropropyl)pyrrolidin-3-yl]oxy-3-pyridyl]-6-[4-(trifluoromethoxy)phenyl]-8,9-dihydro-7H-benzo[7]annulen-2-ol], the pIC50 in assay [1] is 10.00; in assay [2] (setting [7]), 8.15; in assay [3] (setting [7]), 7.02; in assay [4], 8.70; in assay [5] (setting [7]), 6.81; in assay [6] it was 10.00. For the same compound, at ERα in MCF7 cells, the DC50 amounted to 0.2 nM. Further, the “% Degradation at 3 μM” value on ERα in MCF7 cells is on record as 85%.
As for `CC/C(=C(/c1ccc(O[C@H]2CCN(CCCF)C2)cc1)c1ccc2[nH]ncc2c1)c1ccc(F)cc1Cl` [Example 255, 5-[(E)-2-(2-chloro-4-fluoro-phenyl)-1-[4-[(3S)-1-(3-fluoropropyl)pyrrolidin-3-yl]oxyphenyl]but-1-enyl]-1H-indazole], the pIC50 was 9.05 in assay [1]; 7.82 in assay [2] (setting [7]); 6.85 in assay [3] (setting [7]); 8.22 in assay [4]; 6.72 in assay [5] (setting [7]); 10.00 in assay [6]. Moreover, the DC50 at ERα in MCF7 cells was found to be 0.6 nM. Moreover, the “% Degradation at 3 μM” value at ERα in MCF7 cells stood at 92%.
With `Oc1ccc(C2Sc3cc(O)ccc3OC2c2ccc(O[C@H]3CCN(CCCF)C3)cc2)cc1` (stereo partly drawn) [Example 258, 2-[4-[(3S)-1-(3-fluoropropyl)pyrrolidin-3-yl]oxyphenyl]-3-(4-hydroxyphenyl)-2,3-dihydro-1,4-benzoxathiin-6-ol], the pIC50 in assay [1] was 9.00; in assay [2] (setting [7]), 6.69; in assay [3] (setting [7]), 5.62; in assay [4], 7.77; in assay [5] (setting [7]) it was < 5.40; in assay [6], 8.22. For the same compound, the DC50 at ERα in MCF7 cells amounted to 5 nM. Moreover, the “% Degradation at 3 μM” value at ERα in MCF7 cells came out at 77%.
